Experimental data as given in PMC6941952, “A homogeneous bioluminescent immunoassay to probe cellular signaling pathway regulation” (Communications Biology, 2020).
Several values for one entry are separate records, joined by “and”; a condition that tells them apart may be missing. Identical values can stand only once.

Test system: phospho-IκBα (Ser32)
Test: NanoBiT cell-based immunoassay, phosphorylated IκBα in MCF-7 cells
Set-up: species or system human
Description: Prior to NanoBiT Cell-Based Immunoassay, 50,000 cells were seeded in 160 µl of complete growth media per well of a 96-well plate and incubated overnight. The cells were checked under microscope and it was determined that 50,000 cells per well in 96-well plate is under 90% confluency for all cells tested. If necessary, the cell culture media were replaced with serum-free media after the cells were stably adherent on the plate and incubated overnight. To treat cells with activators or inhibitors, medium was changed to 30 µl of medium containing inhibitors. If activation of a specific pathway is needed, the cells were stimulated with 10 µl of medium containing activators. To lyse the cells, 10 µl of lysis buffer containing 0.1% digitonin diluted in 1X immunoassay buffer with protease and phosphatase inhibitors was added and the plates were mixed vigorously for 20 min. Then, 50 µl of an antibody mix containing two primary antibodies against the target protein and NanoBiT detecting antibodies (0.3 µl each per well), diluted in 1X immunoassay buffer was added to the lysates. The plates were incubated at 23 °C for 90 min, followed by the addition of 25 µl of Nano-Glo® reagent consisting of Nano-Glo® Luciferase Assay Substrate mixed with 1X immunoassay buffer. Luminescence was measured using a plate-reading luminometer.
In all, 50,000 MCF-7 cells were seeded in 160 µl complete growth medium per well of a 96-well plate and incubated overnight. Half of the cells were treated with 50 ng per ml TNFα and half with vehicle. Cells were lysed as described above and a mixture of NanoBiT secondary antibodies with primary antibodies at the matrix concentrations described in Fig. 2a were added. After 90 min incubation, the Nano-Glo® reagent was added to the reactions as described above and luminescence was measured using a plate-reading luminometer.
Single dose or dose response inhibitor treatments were performed prior to activation of the pathways as follows. For IκBα, the cells were treated in 30 µl medium with IKK16 or MG132 for 60 min before the addition of 10 µl of DMEM containing appropriate concentration of TNFα. To measure phosphorylation of AKT or STAT3, the corresponding NanoBiT immunoassays were developed with MCF-7 or A431 cells, respectively, according the same scheme used to develop the IκBα assay using the primary antibodies for AKT and STAT3 described in the reagents section. For the AKT assay, MCF-7 cells were incubated overnight in phenol-red free DMEM medium (Gibco #21063-029) without serum. Treatment with LY294002 was performed in 30 µl medium and cells were incubated for 60 min before the addition of 1 µM Insulin. To measure STAT3 phosphorylation, A431 cells were incubated overnight in DMEM medium without serum. […] After addition of the stimulators, the cells were incubated for additional times as follows. IκBα phosphorylation and degradation analyses required both time courses and single time points as described in figures. […] The NanoBiT immunoassay protocol was followed as described above.
All 96-well assay plates were read using a GloMax® 96 Microplate Luminometer from Promega. The instrument was set to 0.5 s integration time. In order to obtain net change of signal, the reagent background values (signal from the well containing all reagent except primary antibodies) were subtracted from the sample values. To plot and analyze the data, Microsoft Excel and GraphPad Prism® Software were used. IC50 values were determined by using a nonlinear regression fit to a sigmoidal dose response (variable slope).

## O=C(c1ccc(Nc2nccc(-c3cc4ccccc4s3)n2)cc1)N1CCC(N2CCCC2)CC1 [IKK16]
Figure 3a and 3b
  P-IkB Raw data: 17490 and 17630 and 17730
  P-IkB Subtract reagent background: 280 and 420 and 520
Figure 3a and 3b, background subtracted
  P-IkB Average: 407
MCF-7 cells, 10 µM 1 h, TNFα 50 ng per ml 10 min
  TNFα-induced phosphorylation of IκBα on serine 32: suppressed
